This is an account of results in patent US9994556B2, “Triazole modified coumarin and biphenyl amide-based HSP90 inhibitors” (THE UNIVERSITY OF KANSAS, priority 2014, dated 2018).

Entries after “also recorded” stand apart in the source; their conditions may differ. Read-outs that look alike come from different tables or passages of the source.

Assay [1] relates to SKBr3 cells. Put plainly: MTS/PMS cell viability assay, SKBr3. Type of assay: cell-based. To be noted: Homo sapiens, SK-BR-3, 72 hr, mean ± standard deviation, read-out: IC50 SKBr3. The protocol: (§1) a) MTS/PMS Cell Viability Assay (SKBr3 and MCF-7 Cells)
(§2) Cells were maintained in a 1:1 mixture of Advanced DMEM/F12 (Gibco) supplemented with non-essential amino acids, L-glutamine (2 mM), streptomycin (500 μg/mL), penicillin (100 units/mL), and 10% FBS. Cells were grown to confluence in a humidified atmosphere (37° C., 5% CO2), seeded (2000/well, 100 μL) in 96-well plates, and allowed to attach overnight. Compound at varying concentrations in DMSO (1% DMSO final concentration) was added, and cells were returned to the incubator for 72 hr. At 72 hr, the number of viable cells was determined using an MTS/PMS cell proliferation kit (Promega) per the manufacturer's instructions. Cells incubated in 1% DMSO were used at 100% proliferation, and values were adjusted accordingly. IC50 values were calculated from separate experiments performed in triplicate using GraphPad Prism.

The subject of assay [2] is MCF-7 cells. In words: MTS/PMS cell viability assay, MCF-7. It is filed as cell-based. To be noted: Homo sapiens, MCF7. Here is the method:
as §1, §2

Assay [3] deals with MDA-MB-468LN cell line. Put plainly: Promega CellTiter-Glo (CTG) luminescent assay, MDA-MB-468LN. It is filed as cell-based. To be noted: Homo sapiens, 72 hr, mean ± standard deviation. Here is the method:
(§3) b) Promega CellTiter-Glo (CTG) Luminescent Assay
(§4) Antiproliferative activities against MDA-MB-468LN, MDA1986 and JMAR cell lines were performed with 384-well white plates with the Promega CellTiter-Glo (CTG) luminescent assay with 72 hr compound treatment. Data analysis was performed using GraphPad Prism. Selected data were further checked with MTS/PMS cell viability assay with 96-well plates, which correlated well with Promega CellTiter-Glo luminescent assay.
A general note: In ATP-based viability assays light output follows the ATP content of the culture.

Assay [4] concerns MDA1986 cell line. Put plainly: Promega CellTiter-Glo (CTG) luminescent assay, MDA1986. Type of assay: cell-based. To be noted: 72 hr, mean ± standard deviation, read-out: IC50 MDA1986. The protocol: as §3, §4
Assay [5] deals with JMAR cell line. In words: Promega CellTiter-Glo (CTG) luminescent assay, JMAR. It is filed as cell-based. To be noted: 72 hr, mean ± standard deviation. Here is the method: as §3, §4
The test system of assay [6] is PC3-MM2 cells. Put plainly: Sulforhodamine B assay, PC3-MM2. To be noted: Homo sapiens, PC3MM2, mean ± standard deviation. It is filed as cell-based. The protocol:
(§5) c) Sulforhodamine B Assay
(§6) The sulforhodamine B assay is used to measure drug-induced cytotoxicity and cell proliferation for large-scale drug-screening applications. Its principle is based on the ability of the protein dye sulforhodamine B to bind electrostatically on pH dependent protein basic amino acid residues of trichloroacetic acid-fixed cells. The aim is to evaluate samples showing selective growth inhibition or cell killing of particular tumor cell lines.
(§7) The SRB assay is performed by treating cells using a 10 point dose-response curve. The cells are fixed with trichloroacetic acid solution and stained with sulforhodamine B dye. The stained cells are then solubilized with 10 mM Tris buffer and read for absorbance at 565 nm.
(§8) Percentage growth is calculated at each of the drug concentration levels using the absorbance raw data.
(§9) Percentage growth inhibition is calculated as: [(Ti−Tz)/(C−Tz)]×100 for concentrations for which Ti≥Tz. [(Ti−Tz)/(Tz)]×100 for concentrations for which Ti<Tz.
(§10) Ti=Absorbance of wells at a given drug concentration level.
(§11) Tz=Absorbance time zero wells
(§12) C=Absorbance of untreated wells (media and cells only)
(§13) After growth inhibition values have been calculated, the data is plotted on Graphpad Prism software. Data is entered and plotted on a sigmoidal dose-response curve using non-linear regression.
For orientation: Sulforhodamine B stains cellular protein and so reports cell mass.

In assay [7] the test system is LNCaP cells. In words: Sulforhodamine B assay, LNCaP. It is filed as cell-based. To be noted: Homo sapiens, mean ± standard deviation. Here is the method: as §5, §6, §7, §8, §9, §10, §11, §12, §13
The subject of assay [8] is Hsp90 client proteins Her2, Akt, Raf-1 and CDK6. Put plainly: Western blot analyses of Hsp90 client protein degradation in MCF-7 cell lysates. It is filed as cell-based, human. To be noted: MCF-7 lysates, 24 h; L = 1/2 and H = 5 times the antiproliferative IC50. Here is the method: MCF-7 cells were cultured as described above and treated with various concentrations of drug, Geldanamycin (GDA or G) in DMSO (1% DMSO final concentration), or vehicle (DMSO) for 24 hr. Cells were harvested in cold PBS and lysed in RIPA lysis buffer containing 1 mM PMSF, 2 mM sodium orthovanadate, and protease inhibitors on ice for 1 hr. Lysates were clarified at 14000 g for 10 min at 4° C. Protein concentrations were determined using the Pierce BCA protein assay kit per the manufacturer's instructions. Equal amounts of protein (15 μg) were electrophoresed under reducing conditions, transferred to a PVDF membrane, and immunoblotted with the corresponding specific antibodies. Membranes were incubated with an appropriate horseradish peroxidase-labeled secondary antibody, developed with a chemiluminescent substrate, and visualized.
A general note: In western blotting, separated proteins are transferred to a membrane and probed.

Where [9] appears, read: Table 1 coumarin-based triazoles, at least two experiments in triplicate.
Where [10] appears, read: Table 1 coumarin-based triazoles, 72 hr, mean ± standard deviation, read-out: IC50 MCF-7.
Setting [11] is: Table 1 coumarin-based triazoles.
[12] abbreviates: Table 2 biphenyl triazole analogues.
Setting [13] is: Table 2 biphenyl triazole analogues, 72 hr, mean ± standard deviation, read-out: IC50 MCF-7.

In the case of `Cc1c(OC2CCN(C)CC2)ccc2cc(NC(=O)c3cn(-c4cccc(Cl)c4)nn3)c(=O)oc12` [4f, 1-(3-Chlorophenyl)-N-(8-methyl-7-((1-methylpiperidin-4-yl)oxy)-2-oxo-2H-chromen-3-yl)-1H-1,2,3-triazole-4-carboxamide], the concentration for half-maximal inhibition (IC50) worked out at 710 ± 140 nM in assay [1] (setting [9]); 1140 ± 180 nM in assay [2] (setting [10]); 4600 nM in assay [3] (setting [11]); 6400 nM in assay [4] (setting [11]); 6400 nM in assay [5] (setting [11]); 3900 ± 5110 nM in assay [6] (setting [11]). Also, the IC50 in assay [7] (setting [11]) was 13300 ± 11900 nM. Further, in assay [8], the “Hsp90 client proteins Her2, Akt and Raf-1 (Western blot)” value (“Hsp90 client proteins Her2” for short) was “degraded”.
For the molecule `COc1cccc(Cn2cc(C(=O)Nc3cc4ccc(OC5CCN(C)CC5)c(C)c4oc3=O)nn2)c1` [4o, 1-(3-Methoxybenzyl)-N-(8-methyl-7-((1-methylpiperidin-4-yl)oxy)-2-oxo-2H-chromen-3-yl)-1H-1,2,3-triazole-4-carboxamide], the IC50 in assay [1] (setting [9]) came to 1150 ± 190 nM; in assay [2] (setting [10]) it was 1610 ± 60 nM; in assay [3] (setting [11]), 2690 ± 1330 nM; in assay [4] (setting [11]), 1340 ± 310 nM; in assay [5] (setting [11]), 1490 ± 310 nM; in assay [6] (setting [11]), 7200 ± 150 nM. For the same molecule, in assay [7] (setting [11]), the 50% inhibitory concentration (IC50) came out at 3490 ± 300 nM. The “Hsp90 client proteins Her2” value in assay [8] was “degraded”.
On to `Cc1c(OC2CCN(C)CC2)ccc2cc(NC(=O)c3cn(CC4CCCCC4)nn3)c(=O)oc12` [4q, 1-(Cyclohexylmethyl)-N-(8-methyl-7-((1-methylpiperidin-4-yl)oxy)-2-oxo-2H-chromen-3-yl)-1H-1,2,3-triazole-4-carboxamide], for which the IC50 in assay [1] (setting [9]) amounted to 610 nM; in assay [2] (setting [10]), 1290 ± 160 nM; in assay [3] (setting [11]) it was 990 ± 240 nM; in assay [4] (setting [11]), 240 ± 320 nM; in assay [5] (setting [11]), 300 ± 260 nM; in assay [6] (setting [11]), 3130 ± 140 nM. Also, it took 1200 ± 60 nM to reach half-maximal inhibition in assay [7] (setting [11]) (IC50). Also, the “Hsp90 client proteins Her2” value in assay [8] is listed as “degraded”.
Take `COc1ccc(Cn2cc(C(=O)Nc3ccc(-c4ccc(OC5CCN(C)CC5)cc4)cc3)nn2)cc1` [5g, 1-(4-Methoxybenzyl)-N-(4′-((1-methylpiperidin-4-yl)oxy)-[1,1′-biphenyl]-4-yl)-1H-1,2,3-triazole-4-carboxamide]: the IC50 came out at 160 ± 20 nM in assay [1] (setting [12]); 270 ± 60 nM in assay [2] (setting [13]); 270 nM in assay [2] (read-out: IC50 against MCF-7 cell line); 170 nM in assay [3] (setting [12]); 480 ± 90 nM in assay [4] (setting [12]); 610 ± 90 nM in assay [5] (setting [12]). The IC50 in assay [6] (setting [12]) was 440 ± 190 nM; in assay [7] (setting [12]), 240 ± 70 nM. In addition, the “Hsp90 client proteins Her2” value in assay [8] was “decreased; also recorded: Clear degradation”.
Turning to `CN1CCC(Oc2ccc(-c3ccc(NC(=O)c4cn(Cc5ccc(F)cc5)nn4)cc3)cc2)CC1` [5j, 1-(4-Fluorobenzyl)-N-(4′-((1-methylpiperidin-4-yl)oxy)-[1,1′-biphenyl]-4-yl)-1H-1,2,3-triazole-4-carboxamide], the IC50 came to 720 ± 180 nM in assay [1] (setting [12]); 1040 ± 80 nM in assay [2] (setting [13]); 1090 ± 230 nM in assay [3] (setting [12]); 930 ± 340 nM in assay [4] (setting [12]); 1390 ± 520 nM in assay [5] (setting [12]); 2810 ± 1820 nM in assay [6] (setting [12]). In assay [7] (setting [12]), this molecule had an IC50 of 1640 ± 970 nM.
Consider `CN1CCC(Oc2ccc(-c3ccc(NC(=O)c4cn(Cc5cccc(Cl)c5)nn4)cc3)cc2)CC1` [5k, 1-(3-Chlorobenzyl)-N-(4′-((1-methylpiperidin-4-yl)oxy)-[1,1′-biphenyl]-4-yl)-1H-1,2,3-triazole-4-carboxamide], for which the IC50 came out at 390 ± 10 nM in assay [1] (setting [12]); 340 ± 20 nM in assay [2] (setting [13]); 170 ± 20 nM in assay [3] (setting [12]); 170 ± 120 nM in assay [4] (setting [12]); 270 ± 40 nM in assay [5] (setting [12]); 350 ± 140 nM in assay [6] (setting [12]). This molecule also had a concentration for half-maximal inhibition (IC50) in assay [7] (setting [12]) of 120 ± 100 nM.
As to `COc1cccc(Cn2cc(C(=O)Nc3ccc(-c4ccc(OC5CCN(C)CC5)cc4)cc3)nn2)c1` [5l, 1-(3-Methoxybenzyl)-N-(4′-((1-methylpiperidin-4-yl)oxy)-[1,1′-biphenyl]-4-yl)-1H-1,2,3-triazole-4-carboxamide], the IC50 in assay [1] (setting [12]) is 320 ± 20 nM; in assay [2] (setting [13]) it was 160 ± 20 nM; in assay [3] (setting [12]), 190 ± 50 nM; in assay [4] (setting [12]), 280 ± 90 nM; in assay [5] (setting [12]), 210 ± 120 nM; in assay [6] (setting [12]), 550 ± 370 nM. In addition, the IC50 in assay [7] (setting [12]) worked out at 160 nM.
Consider `CN1CCC(Oc2ccc(-c3ccc(NC(=O)c4cn(Cc5ccccc5Cl)nn4)cc3)cc2)CC1` [5m, 1-(2-Chlorobenzyl)-N-(4′-((1-methylpiperidin-4-yl)oxy)-[1,1′-biphenyl]-4-yl)-1H-1,2,3-triazole-4-carboxamide], for which the IC50 in assay [1] (setting [12]) was determined as 340 ± 40 nM; in assay [2] (setting [13]), 380 ± 30 nM; in assay [3] (setting [12]) it was 220 ± 30 nM; in assay [4] (setting [12]), 810 ± 50 nM; in assay [5] (setting [12]), 650 nM; in assay [6] (setting [12]), 1040 ± 510 nM. In assay [7] (setting [12]), the IC50 was 610 ± 340 nM.
Consider `Cc1ccc(Cn2cc(C(=O)Nc3ccc(-c4ccc(OC5CCN(C)CC5)cc4)cc3)nn2)c(Cl)c1` [5n, 1-(2-Chloro-4-methylbenzyl)-N-(4′-((1-methylpiperidin-4-yl)oxy)-[1,1′-biphenyl]-4-yl)-1H-1,2,3-triazole-4-carboxamide], for which the IC50 in assay [1] (setting [12]) amounted to 160 ± 10 nM; in assay [2] (setting [13]), 200 ± 50 nM; in assay [3] (setting [12]), 150 ± 20 nM; in assay [4] (setting [12]), 150 ± 60 nM; in assay [5] (setting [12]), 430 ± 250 nM; in assay [6] (setting [12]), 350 ± 120 nM. The molecule also registered an IC50 in assay [7] (setting [12]) of 50 ± 40 nM.
Turning to `CN1CCC(Oc2ccc(-c3ccc(NC(=O)c4cn(CC5CCCCC5)nn4)cc3)cc2)CC1` [5o, 1-(Cyclohexylmethyl)-N-(4′-((1-methylpiperidin-4-yl)oxy)-[1,1′-biphenyl]-4-yl)-1H-1,2,3-triazole-4-carboxamide], the IC50 in assay [1] (setting [12]) is 200 ± 20 nM; in assay [2] (setting [13]) it was 310 ± 40 nM; in assay [3] (setting [12]), 240 ± 60 nM; in assay [4] (setting [12]), 380 ± 140 nM; in assay [5] (setting [12]) it was 260 ± 450 nM; in assay [6] (setting [12]) it was 5120 ± 6540 nM. In addition, the IC50 in assay [7] (setting [12]) turned out to be 480 ± 680 nM.

In general, IC50 refers to the concentration that gives 50% inhibition.
